Data on one compound can be found in patent publication US10968222B2, “2-azabicyclo hexane JAK inhibitor compound” (THERAVANCE BIOPHARMA R&D IP, LLC, priority 2018, dated 2021).

For data set [1], the target named is T1, PAK4 (Homo sapiens, UniProt O96013).
T1 construct: made in house; host or cells: E. coli BL21-derived host (T7 phage) or HEK-293 cells
Description: Kinome screen, PAK4. As to conditions: screened at 1 μM. Type of data set: binding. As for the experimental part:
(§1) Compounds 1 and C-1 were screened against other kinases to evaluate their selectivity profile.
(§2) Kinase-tagged T7 phage strains were grown in parallel in 24-well blocks in an E. coli host derived from the BL21 strain. E. coli were grown to log-phase and infected with T7 phage from a frozen stock (multiplicity of infection=0.4) and incubated with shaking at 32° C. until lysis (90-150 minutes). The lysates were centrifuged (6,000×g) and filtered (0.2 μm) to remove cell debris. The remaining kinases were produced in HEK-293 cells and subsequently tagged with DNA for qPCR detection.
(§3) Streptavidin-coated magnetic beads were treated with biotinylated small molecule ligands for 30 minutes at room temperature to generate affinity resins for kinase assays. The liganded beads were blocked with excess biotin and washed with blocking buffer (SeaBlock (Pierce), 1% BSA, 0.05% Tween 20, 1 mM DTT) to remove unbound ligand and to reduce non-specific phage binding. Binding reactions were assembled by combining kinases, liganded affinity beads, and test compounds in 1× binding buffer (20% SeaBlock, 0.17×PBS, 0.05% Tween 20, 6 mM DTT). Test compounds were prepared as 40× stocks in 100% DMSO and directly diluted into the assay. All reactions were performed in polypropylene 384-well plates in a final volume of 0.04 ml. […] The kinase concentration in the eluates was measured by qPCR. […]

Data set [2] addresses T2, EPHB6 (Homo sapiens, UniProt O15197).
T2 construct: made in house; host or cells: E. coli BL21-derived host (T7 phage) or HEK-293 cells
Description: Kinome screen, EPHB6. Type of data set: binding. The conditions noted are these: screened at 1 μM. The method, then:
as §1, §2, §3

The target in data set [3] is T3, CSNK1D (Homo sapiens, UniProt P48730).
T3 construct: made in house; host or cells: E. coli BL21-derived host (T7 phage) or HEK-293 cells
T3 sequence (P48730 whole entry): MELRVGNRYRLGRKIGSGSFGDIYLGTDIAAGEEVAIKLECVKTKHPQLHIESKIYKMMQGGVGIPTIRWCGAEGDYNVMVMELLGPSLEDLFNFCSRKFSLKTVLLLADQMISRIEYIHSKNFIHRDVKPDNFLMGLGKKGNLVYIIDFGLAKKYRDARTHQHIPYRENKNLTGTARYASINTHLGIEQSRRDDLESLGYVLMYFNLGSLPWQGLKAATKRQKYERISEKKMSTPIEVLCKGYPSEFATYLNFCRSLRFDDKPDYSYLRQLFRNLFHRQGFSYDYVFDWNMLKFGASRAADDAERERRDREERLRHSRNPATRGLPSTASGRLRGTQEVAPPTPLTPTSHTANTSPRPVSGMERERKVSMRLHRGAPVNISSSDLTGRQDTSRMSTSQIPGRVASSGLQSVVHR
Briefly: Kinome screen, CSNK1D. Type of data set: binding. The conditions noted are these: screened at 1 μM. As for the experimental part:
as §1, §2, §3

Data set [4] has as its target T4, CDK2 (Homo sapiens, UniProt P24941).
T4 construct: made in house; host or cells: E. coli BL21-derived host (T7 phage) or HEK-293 cells
Briefly: Kinome screen, CDK2. Type of data set: binding. The conditions noted are these: screened at 1 μM. As for the experimental part: as §1, §2, §3

Data set [5] has as its target T5, ALK (Homo sapiens, UniProt Q9UM73).
T5 construct: made in house; host or cells: E. coli BL21-derived host (T7 phage) or HEK-293 cells
Description: Kinome screen, ALK. Type of data set: binding. As to conditions: screened at 1 μM. The method, then:
as §1, §2, §3

The target of data set [6] is T6, KIT (Homo sapiens, UniProt P10721).
T6 construct: made in house; host or cells: E. coli BL21-derived host (T7 phage) or HEK-293 cells
Description: Kinome screen, KIT. The conditions noted are these: screened at 1 μM. Type of data set: binding. As for the experimental part: as §1, §2, §3

Data set [7] addresses T7, SRC (Homo sapiens, UniProt P12931).
T7 construct: made in house; host or cells: E. coli BL21-derived host (T7 phage) or HEK-293 cells
Briefly: Kinome screen, SRC. Type of data set: binding. As to conditions: screened at 1 μM. As for the experimental part:
as §1, §2, §3

Data set [8] relates to IL-2/anti-CD3 stimulated STAT5 phosphorylation in CD4+ T cells in human PBMCs. Description: Inhibition of IL-2 stimulated pSTAT5 in CD4+ T cells. Type of data set: cell-based. The conditions noted are these: 0.5 h, 30 min stimulation, flow cytometry, read-out: pIC50, inhibition of IL-2 stimulated pSTAT5 in CD4+ T cells (converted). As for the experimental part:
The potency of the test compound for inhibition of interleukin-2 (IL-2)/anti-CD3 stimulated STAT5 phosphorylation was measured in CD4-positive (CD4+) T cells in human peripheral blood mononuclear cells (PBMCs) isolated from human whole blood (Stanford Blood Center) using flow cytometry. Because IL-2 signals through JAK, this assay provides a measure of JAK cellular potency.
CD4+ T cells were identified using a […] (PE) conjugated anti-CD4 antibody (Clone RPA-T4, BD Biosciences), while an Alexa Fluor 647 conjugated anti-pSTAT5 antibody (pY694, Clone 47, BD Biosciences) was used to detect STAT5 phosphorylation. […]
(2) After cytokine stimulation, cells were fixed with pre warmed fix solution (200 μL; BD Biosciences) for 10 min at 37° C., 5% CO2, washed twice with DPBS buffer (1 mL, Life Technologies), and resuspended in ice cold Perm Buffer III (1000 μL, BD Biosciences) for 30 min at 4° C. […] After incubation, cells were washed twice in FACS buffer before being analyzed using a LSRII flow cytometer (BD Biosciences). To determine the inhibitory potency of the test compound in response to IL-2/anti-CD3, the median fluorescent intensity (MFI) of pSTAT5 was measured in CD4+ T cells. IC50 values were determined from analysis of the inhibition curves of MFI vs compound concentration.
Data are expressed as pIC50 (negative decadic logarithm IC50) values.
A general note: A flow cytometer gives signals particle by particle.

Data set [9] has as its target T8, VEGFR2 (Homo sapiens, UniProt P35968).
T8 construct: made in house; host or cells: E. coli BL21-derived host (T7 phage) or HEK-293 cells
Description: Kinome screen, VEGFR2. As to conditions: screened at 1 μM. Type of data set: binding. The method, then:
as §1, §2, §3

Data set [10] can be described thus: Lung and plasma pharmacokinetics in mice. Type of data set: in vivo, mouse. As to conditions: BALB/c mice. The method, then: Plasma and lung concentrations of compound 1 and ratios thereof were determined in the following manner. BALB/c mice from Charles River Laboratories were used in the assay. Compound 1 was formulated in 20% propylene glycol in citrate buffer (pH 4) at a concentration of 0.324 mg/mL as a solution. 50 μL of the solution formulation was introduced into the trachea of a mouse by oral aspiration. At various time points (0.167, 2, 6 hr) post dosing, blood samples were removed via cardiac puncture and intact lungs were excised from the mice. Blood samples were centrifuged (Eppendorf centrifuge, 5804R) for 4 minutes at approximately 12,000 rpm at 4° C. to collect plasma. Lungs were padded dry, weighed, and homogenized in 0.6 mL sterile water. Plasma and lung concentrations of compound 1 were determined by LC-MS analysis against analytical standards constructed into a standard curve in the test matrix. […] The lung-to-plasma ratio was determined as the ratio of the lung AUC in μg hr/g to the plasma AUC in μg hr/mL (where AUC is conventionally defined as the area under the curve of test compound concentration vs. time).

Each structure is given as a SMILES string.

T5 sequence (Q9UM73 19-1620): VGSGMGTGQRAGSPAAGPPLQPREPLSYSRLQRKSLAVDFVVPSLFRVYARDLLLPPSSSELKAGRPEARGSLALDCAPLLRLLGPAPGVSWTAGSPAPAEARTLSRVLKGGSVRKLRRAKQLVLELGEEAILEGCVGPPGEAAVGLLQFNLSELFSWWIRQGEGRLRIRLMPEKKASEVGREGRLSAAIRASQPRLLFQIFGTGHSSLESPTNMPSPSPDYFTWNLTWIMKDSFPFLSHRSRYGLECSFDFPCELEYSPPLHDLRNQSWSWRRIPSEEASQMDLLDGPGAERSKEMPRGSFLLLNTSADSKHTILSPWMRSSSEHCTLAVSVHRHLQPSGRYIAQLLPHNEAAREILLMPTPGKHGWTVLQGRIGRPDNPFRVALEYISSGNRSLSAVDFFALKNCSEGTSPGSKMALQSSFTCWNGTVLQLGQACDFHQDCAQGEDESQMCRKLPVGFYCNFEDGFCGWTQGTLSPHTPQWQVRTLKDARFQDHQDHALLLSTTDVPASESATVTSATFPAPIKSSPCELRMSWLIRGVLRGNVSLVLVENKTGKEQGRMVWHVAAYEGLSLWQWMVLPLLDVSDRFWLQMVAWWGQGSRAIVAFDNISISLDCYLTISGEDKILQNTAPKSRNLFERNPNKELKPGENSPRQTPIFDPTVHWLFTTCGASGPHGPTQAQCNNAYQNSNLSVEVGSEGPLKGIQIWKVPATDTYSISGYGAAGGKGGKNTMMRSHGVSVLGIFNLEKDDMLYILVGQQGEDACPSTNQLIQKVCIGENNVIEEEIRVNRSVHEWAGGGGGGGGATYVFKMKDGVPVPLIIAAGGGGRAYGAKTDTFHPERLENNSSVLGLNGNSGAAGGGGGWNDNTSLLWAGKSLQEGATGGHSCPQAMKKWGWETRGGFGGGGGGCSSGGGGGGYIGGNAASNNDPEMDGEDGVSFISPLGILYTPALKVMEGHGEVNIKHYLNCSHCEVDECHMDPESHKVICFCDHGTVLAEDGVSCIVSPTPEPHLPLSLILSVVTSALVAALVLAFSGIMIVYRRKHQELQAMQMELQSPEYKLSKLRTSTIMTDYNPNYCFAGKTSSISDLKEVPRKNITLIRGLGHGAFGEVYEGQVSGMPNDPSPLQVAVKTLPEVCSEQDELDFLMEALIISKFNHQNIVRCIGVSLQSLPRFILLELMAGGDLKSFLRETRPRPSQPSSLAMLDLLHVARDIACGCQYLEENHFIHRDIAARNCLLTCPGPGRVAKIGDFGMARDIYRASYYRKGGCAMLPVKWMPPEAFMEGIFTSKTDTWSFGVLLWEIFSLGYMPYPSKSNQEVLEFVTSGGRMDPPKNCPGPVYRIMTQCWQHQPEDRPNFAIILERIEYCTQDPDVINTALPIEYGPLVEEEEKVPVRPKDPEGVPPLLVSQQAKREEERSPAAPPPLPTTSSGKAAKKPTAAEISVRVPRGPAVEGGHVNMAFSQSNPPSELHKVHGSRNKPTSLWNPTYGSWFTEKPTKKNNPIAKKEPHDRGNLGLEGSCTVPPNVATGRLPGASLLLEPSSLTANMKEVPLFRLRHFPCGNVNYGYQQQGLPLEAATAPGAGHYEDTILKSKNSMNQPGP
T7 sequence (P12931 whole entry): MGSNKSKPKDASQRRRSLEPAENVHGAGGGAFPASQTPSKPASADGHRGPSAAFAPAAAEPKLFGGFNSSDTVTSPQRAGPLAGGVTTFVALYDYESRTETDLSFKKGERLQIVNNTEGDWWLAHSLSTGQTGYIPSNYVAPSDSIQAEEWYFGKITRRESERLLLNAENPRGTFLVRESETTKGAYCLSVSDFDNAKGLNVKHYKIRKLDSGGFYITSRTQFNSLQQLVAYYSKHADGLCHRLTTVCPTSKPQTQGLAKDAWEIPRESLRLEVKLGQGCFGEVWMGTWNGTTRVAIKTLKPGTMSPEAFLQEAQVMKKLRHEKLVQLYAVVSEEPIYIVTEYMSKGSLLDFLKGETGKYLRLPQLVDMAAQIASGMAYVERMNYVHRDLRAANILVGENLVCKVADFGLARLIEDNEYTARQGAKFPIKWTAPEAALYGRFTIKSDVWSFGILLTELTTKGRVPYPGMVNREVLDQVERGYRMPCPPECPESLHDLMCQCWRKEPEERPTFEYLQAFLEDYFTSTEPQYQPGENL
T8 sequence (P35968 20-1356): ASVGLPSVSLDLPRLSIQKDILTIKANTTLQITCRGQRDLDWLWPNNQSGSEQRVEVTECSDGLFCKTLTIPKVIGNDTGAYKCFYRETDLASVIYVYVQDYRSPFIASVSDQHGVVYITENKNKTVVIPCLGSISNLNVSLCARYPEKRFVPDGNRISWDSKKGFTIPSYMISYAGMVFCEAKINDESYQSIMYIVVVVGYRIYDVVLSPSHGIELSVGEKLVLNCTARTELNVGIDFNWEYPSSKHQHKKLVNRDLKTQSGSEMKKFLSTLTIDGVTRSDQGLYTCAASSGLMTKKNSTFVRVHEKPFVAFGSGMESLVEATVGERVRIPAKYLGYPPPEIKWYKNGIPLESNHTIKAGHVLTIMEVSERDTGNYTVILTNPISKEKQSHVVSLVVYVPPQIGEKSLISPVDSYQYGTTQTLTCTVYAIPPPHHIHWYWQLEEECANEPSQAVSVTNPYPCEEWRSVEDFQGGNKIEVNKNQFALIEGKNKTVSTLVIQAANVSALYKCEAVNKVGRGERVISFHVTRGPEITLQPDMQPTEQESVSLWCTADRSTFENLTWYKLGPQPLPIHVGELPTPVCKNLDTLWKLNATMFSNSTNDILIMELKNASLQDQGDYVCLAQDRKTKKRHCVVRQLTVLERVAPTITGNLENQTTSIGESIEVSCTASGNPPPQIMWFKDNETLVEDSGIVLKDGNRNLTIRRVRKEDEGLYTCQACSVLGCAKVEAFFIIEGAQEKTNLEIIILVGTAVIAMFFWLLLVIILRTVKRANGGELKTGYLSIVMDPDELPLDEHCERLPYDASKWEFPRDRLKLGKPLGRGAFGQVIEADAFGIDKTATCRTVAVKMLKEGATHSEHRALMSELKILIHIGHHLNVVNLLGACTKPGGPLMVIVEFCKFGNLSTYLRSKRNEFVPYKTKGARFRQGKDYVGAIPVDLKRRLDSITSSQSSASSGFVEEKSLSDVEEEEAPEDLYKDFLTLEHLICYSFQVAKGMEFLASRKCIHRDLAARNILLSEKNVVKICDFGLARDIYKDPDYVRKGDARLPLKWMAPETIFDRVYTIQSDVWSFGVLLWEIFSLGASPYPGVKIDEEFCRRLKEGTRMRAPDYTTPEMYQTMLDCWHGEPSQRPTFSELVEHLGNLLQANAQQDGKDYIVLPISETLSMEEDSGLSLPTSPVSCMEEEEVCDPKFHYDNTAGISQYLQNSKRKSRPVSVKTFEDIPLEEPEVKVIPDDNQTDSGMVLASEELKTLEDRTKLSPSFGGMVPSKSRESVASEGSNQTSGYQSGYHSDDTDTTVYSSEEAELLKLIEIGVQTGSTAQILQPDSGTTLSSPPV
T2 sequence (O15197 32-1021): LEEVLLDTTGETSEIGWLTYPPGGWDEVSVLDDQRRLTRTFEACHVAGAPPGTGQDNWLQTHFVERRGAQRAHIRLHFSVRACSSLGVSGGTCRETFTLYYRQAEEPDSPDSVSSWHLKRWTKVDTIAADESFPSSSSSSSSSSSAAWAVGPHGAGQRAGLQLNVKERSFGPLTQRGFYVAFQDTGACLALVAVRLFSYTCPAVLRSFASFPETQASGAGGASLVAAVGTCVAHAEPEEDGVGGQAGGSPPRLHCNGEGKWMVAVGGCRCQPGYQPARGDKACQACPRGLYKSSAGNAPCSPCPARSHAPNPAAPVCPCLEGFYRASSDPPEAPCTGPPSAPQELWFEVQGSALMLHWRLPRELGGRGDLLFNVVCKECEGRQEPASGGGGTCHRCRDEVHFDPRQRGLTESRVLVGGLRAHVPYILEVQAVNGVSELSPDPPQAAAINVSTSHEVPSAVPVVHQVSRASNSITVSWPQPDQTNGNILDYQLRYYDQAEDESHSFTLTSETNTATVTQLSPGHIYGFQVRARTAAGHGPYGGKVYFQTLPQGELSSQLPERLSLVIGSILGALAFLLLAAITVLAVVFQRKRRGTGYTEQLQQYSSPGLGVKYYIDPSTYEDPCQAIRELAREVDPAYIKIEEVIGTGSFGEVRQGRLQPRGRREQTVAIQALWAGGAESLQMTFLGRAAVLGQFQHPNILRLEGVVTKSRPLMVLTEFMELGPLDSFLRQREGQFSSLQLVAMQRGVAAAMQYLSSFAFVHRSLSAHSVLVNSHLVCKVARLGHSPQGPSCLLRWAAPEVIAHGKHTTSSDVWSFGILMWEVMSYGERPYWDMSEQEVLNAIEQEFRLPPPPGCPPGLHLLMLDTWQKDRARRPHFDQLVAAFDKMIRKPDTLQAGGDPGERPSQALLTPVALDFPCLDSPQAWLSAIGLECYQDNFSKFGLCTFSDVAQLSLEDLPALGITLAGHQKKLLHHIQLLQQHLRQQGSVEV

For the compound `CCc1cc(O)c(F)cc1-c1cc(F)c2c(-c3nc4c([nH]3)CCN(C(=O)[C@]35C[C@H]3CCN5)C4)n[nH]c2c1` [Compound 1, (1S,5R)-2-azabicyclo[3.1.0]hexan-1-yl(2-(6-(2-ethyl-5-fluoro-4-hydroxyphenyl)-4-fluoro-1H-indazol-3-yl)-6,7-dihydro-3H-imidazo[4,5-c]pyridin-5(4H)-yl)methanone], the inhibition at 1 µM in data set [1] turned out to be 41%; in [2], 85%; in data set [3], 25%; in data set [4], 1%; in data set [5], 79%; in data set [6], 83%. Also, the results for the inhibition at 1 µM in data set [7] and in data set [9] were 65% and 47%, respectively. In addition, the IC50 in data set [8] was 20 nM. Moreover, the “lung AUC (0-6 hr)” value in data set [10] (oral aspiration of 50 μL of 0.324 mg/mL solution) is 43.5 µg·h/g. Besides, the Kp in data set [10] (mouse, 16.2 µg/mouse, oral aspiration, lung AUC in μg hr/g to plasma AUC in μg hr/mL, read-out: lung-to-plasma AUC ratio) was determined as 59.6.

As a reminder, the inhibition is how much of the control response was suppressed. A higher inhibition goes with a strong effect.
